In paper PMC5376326, “Inhibition of ANO1 by luteolin and its cytotoxicity in human prostate cancer PC-3 cells” (PLoS ONE, 2017):
Where “and” joins values, the source holds several entries; their conditions need not be identical. Identical values can stand only once.

Key:
ANO1 [1] = molecular target: T1, ANO1 (Homo sapiens, UniProt Q5XXA6, DEL476-501); assay: Apical membrane (short-circuit) current in ANO1-expressing FRT cells; type: cell-based; details: for Block of ANO1 chloride channel current: pretreated 20 min, 100 μM ATP, FRT-ANO1 cells
T1 sequence (Q5XXA6 with tags, fused parts or gaps isoform Q5XXA6-5 DEL539-564): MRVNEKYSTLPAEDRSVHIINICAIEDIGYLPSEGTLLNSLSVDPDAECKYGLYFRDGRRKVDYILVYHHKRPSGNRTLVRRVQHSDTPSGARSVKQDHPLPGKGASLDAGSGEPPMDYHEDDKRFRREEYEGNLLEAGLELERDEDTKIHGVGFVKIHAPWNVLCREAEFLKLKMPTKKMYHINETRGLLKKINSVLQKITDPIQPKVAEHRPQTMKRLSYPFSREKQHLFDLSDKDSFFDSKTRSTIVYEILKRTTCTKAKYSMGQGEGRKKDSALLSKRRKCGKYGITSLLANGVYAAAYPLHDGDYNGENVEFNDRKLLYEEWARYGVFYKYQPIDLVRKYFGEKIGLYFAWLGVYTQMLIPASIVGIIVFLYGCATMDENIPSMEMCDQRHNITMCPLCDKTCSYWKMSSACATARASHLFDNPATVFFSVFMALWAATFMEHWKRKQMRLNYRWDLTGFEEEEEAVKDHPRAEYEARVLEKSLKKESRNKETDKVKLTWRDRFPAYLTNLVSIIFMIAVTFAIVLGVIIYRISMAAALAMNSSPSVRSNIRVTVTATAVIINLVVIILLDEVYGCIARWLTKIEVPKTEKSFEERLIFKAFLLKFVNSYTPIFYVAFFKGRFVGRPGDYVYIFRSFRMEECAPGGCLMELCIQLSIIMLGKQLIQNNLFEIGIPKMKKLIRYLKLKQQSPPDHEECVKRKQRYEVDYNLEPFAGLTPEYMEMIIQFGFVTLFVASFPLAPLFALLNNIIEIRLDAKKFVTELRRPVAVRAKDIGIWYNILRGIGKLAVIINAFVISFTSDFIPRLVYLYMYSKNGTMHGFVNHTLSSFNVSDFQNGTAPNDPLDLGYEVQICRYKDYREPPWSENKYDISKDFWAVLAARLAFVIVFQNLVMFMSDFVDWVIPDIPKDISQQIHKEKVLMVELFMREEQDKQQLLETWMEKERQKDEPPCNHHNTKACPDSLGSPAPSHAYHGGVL
Experimental: Snapwell inserts containing ANO1-expressing FRT cells were mounted in Ussing chambers (Physiologic Instruments, San Diego, CA). The basolateral bath was filled with HCO3^--buffered solution and the apical bath was filled with a half-Cl^- solution. The basolateral membrane was permeabilized with 250 μg/mL amphotericin B. The cells were bathed for a 20 min stabilization period and aerated with 95% O2 / 5%CO2 at 37°C. Luteolin and kaempferol were applied to the apical and basolateral bath solution and then ATP was added to the apical bath solution to induce intracellular calcium increase. Apical membrane currents were measured with an EVC4000 Multi-Channel V/I Clamp (World Precision Instruments, Sarasota, FL) and recorded using PowerLab 4/35 (AD Instruments, Castle Hill, Australia). Data were collected and analyzed with ADInstruments acquisition software Labchart Pro 7 software. The sampling rate was 4 Hz.

ANO1 [2] = assay: Immunoblot of ANO1 protein levels in PC-3 cells; type: cell-based, human
Experimental: Immunoblotting was performed as described previously. FRT and PC-3 cells were lysed with cell lysis buffer (50 mM Tris-HCl (pH 7.4), 1% Nonidet P-40, 0.25% sodium deoxycholate, 150 mM NaCl, 1 mM EDTA, 1 mM Na3VO4, and protease inhibitor mixture). Whole cell lysates were centrifuged at 15,000 g for 10 min at 4°C to remove the cell debris, and supernatant protein was separated by 4–12% Tris-glycine precast gel (KOMA BIOTECH, Seoul, Korea) and then transferred onto PVDF membrane (Millipore, Billerica, MA). Membrane was blocked with 5% non-fat skim milk in Tris-buffered saline including 0.1% Tween 20 (TBST) for 1 hour at room temperature. The membrane was then incubated overnight with primary ANO1 antibody (1:500 dilution, ab64085; Abcam Inc., Cambridge, MA). After washing three times with TBST, the blot was further incubated for 60 min at room temperature with an anti-rabbit secondary antibody (Santa Cruz Biotechnology, CA). The membrane was then washed three times with TBST and then visualized using the ECL Plus western blotting detection system (GE Healthcare, NJ).

ANO1 [3] = assay: Quantitative real-time PCR of ANO1 mRNA in PC-3 cells; type: cell-based, human
Experimental: Total messenger RNA (mRNA) was extracted by using a TRIzol reagent (Invitrogen, Carlsbad, CA). Quantitative Real-time PCRs were performed using the StepOnePlus Real-Time PCR System (Applied Biosystems, CA) and Thunderbird SYBR qPCR mix (Toyobo, Osaka, Japan). The thermal cycling conditions comprised an initial step at 95°C for 5 minutes followed by 40 cycles at 95°C for 10 seconds, 55°C for 20 seconds, and 72°C for 10 seconds in a 96-well reaction plate. Primers used were as follows: ANO1-sense 5′-GGAGAAGCAGCATCTATTTG-3′, ANO1-antisense 5′ GATCTCATAGACAATCGTGC-3′, β-actin-sense 5′-GCAAAGACCTGTACGCCAACAC-3′ and β-actin-antisense 5′-ATCTCCTTCTGCATCCTGTC-3′. ANO1 mRNA levels were normalized to β-actin levels and the fold-change in gene expression was determined by using 2^-ΔΔCT method. Quantitative PCR experiments were carried out in triplicates.

Compound	Block of ANO1 chloride channel current (ANO1 [1]; 10 μM) [%]	Block of ANO1 chloride channel current (ANO1 [1]; 30 μM) [%]	Block of ANO1 chloride channel current (ANO1 [1]; 100 μM) [%]	Effect on ANO1 protein levels (ANO1 [2]; PC-3 cells expressing high levels of ANO1, 24 hour, indicated concentrations)	Change of ANO1 gene expression levels (ANO1 [3]; 10 μM)	Block of PAR2-AP-triggered ANO1 activation (ANO1 [1]; 100 μM, 20 min pretreatment, PAR2-AP 50 μM)	Inhibition of ATP-induced ANO1 activation (apical current) (ANO1 [1]; 100 μM, ATP 100 μM)	IC50 (ANO1 [1]; FRT cells expressing ANO1, activated by 100 μM ATP, read-out: IC50, ANO1 chloride current (apical membrane current))	Reversibility of ANO1 inhibition (ANO1 [1]; after washing 3 times for 5 min each, re-activation by 50 μM PAR2-AP)	Decrease of ANO1 protein levels (ANO1 [2]; 10 μM, 24 hour, PC-3 cells expressing high levels of ANO1) [%]	Decrease of ANO1 protein levels (ANO1 [2]; 30 μM, 24 hour, PC-3 cells expressing high levels of ANO1) [%]	Time-dependent change of ANO1 protein levels (ANO1 [2]; 30 μM, PC-3 cells)	Increase of ANO1 mRNA expression levels (ANO1 [3]; 10 μM)	Change of ANO1 gene expression levels (ANO1 [3]; 30 μM)
O=c1c(O)c(-c2ccc(O)cc2)oc2cc(O)cc(O)c12 [Kaempferol]	36.2 ± 3.0	55.0 ± 4.1	89.3 ± 2.0	did not affect	slightly increased									
O=c1cc(-c2ccc(O)c(O)c2)oc2cc(O)cc(O)c12 [luteolin]					slightly increased	almost completely blocked	almost completely inhibited	9.8 µM and 9.77 µM and ~10 µM	reversibly inhibited	41.2 ± 1.5	63.1 ± 5.7	significantly decreased in a time-dependent manner	~ 1.3 fold	significantly decreased
